Measurements taken from patent US20130216614A1, “IMMUNOGENIC COMPOSITIONS AND METHODS FOR TREATING NUEROLOGIC DISORDERS” (Glaxosmithkline Biologicals S.A., priority 2010, published 2013).

Columns and labels:
APPSwe/PS1 mice = experiment: Aβ plaque loading in brain, stereological analysis; assay type: in vivo; settings: 50 μg/mouse i.p. weekly for 12 weeks
Protocol: Five groups of APPSwe/PS1 mice have received one a week for a period of 12 weeks the following treatment: • Gr1: APPSwe/PS1+NaCl 0.9% n(=20), i.p. injections • Gr4: APPSwe/PS1+CRX527 (20 μg/mouse, 130 μl, n=10), i.p. injections • Gr5: APPSwe/PS1+CRX601 (20 μg/mouse, 130 μl, n=10), i.p. injections • Gr6: APPSwe/PS1+3D MPL (50 μg/mouse, 130 μl, n=10), i.p. injections • Gr8 APPSwe/PS1+AS15 • Gr9: APPSwe/PS1+AS01B ( 1/10th of human dose μg/kg, 50 μl, n=10), i.m. injections
Mice were anesthetized under isofluorane and blood was drawn via cardiac puncture before head decapitation. Brains were rapidly removed from the skulls and placed in cold phosphate buffered saline (PBS) solution. Then hemibrains were separated and olfactory bulbs and cerebellum were removed. One hemibrain was rapidly frozen in liquid nitrogen and stored at −80° C. for protein analysis. The other one was postfixed for 2-4 days in 4% paraformaldehyde (PFA), pH 9.5 at 4° C., and then placed in a PFA solution containing 10% sucrose overnight at 4° C. […]
An observer who was blind to the treatment status of the material did all quantitative histological analyses. […] Briefly, the contours of the prefrontal cortex, the hippocampus and the cortex areas were traced as virtual overlay on the […] images and areas were calculated. The area occupied by all Aβ-labeled plaques was determined. […]

[1] = Innate cytokine/chemokine profile in sera after injection; assay type: in vivo, C57BL/6 mice
Protocol: FIG. 17: Innate cytokines profile from sera after either LPS or 3DMPL injected mice using the intraperitoneal route at 2 hr or 6 hr post injection time point. Results are shown in relative units (RU or pg/ml) of various cytokines/chemokines in sera for PBS and LPS or 3DMPL injected mice after 2 hours or 6 hours. N=5 mice per group. […] Tukey post-hoc test used for the comparison following ANOVA-1 analysis.
FIG. 18: Innate cytokines profile from sera after either AS01B, AS03 or AS04D injected mice using the intramuscular at 2 hr or 6 hr post injection time point. Results are shown in relative units (RU or pg/ml) of various cytokines/chemokines in sera for PBS and LPS or 3D MPL injected mice after 2 hours or 6 hours. N=5 mice per group. The bars represent mean±SEM.
We measured several cytokines and chemokines in the sera of C57BL/6 mice 2 and 6 h following a single intraperitoneal injection of either MPL or LPS.
Innate cytokines profile from sera after either AS01B, AS03 or AS04D was injected into mice using the intramuscular route, samples taken at 2 hr or 6 hr post injection time point. Results are shown in relative units (RU or pg/ml) of various cytokines/chemokines in sera for PBS and LPS or MPL injected mice after 2 hours or 6 hours. N=5 mice per group. The bars represent mean±SEM.

[2] = tested on: peripheral blood monocytes; experiment: Ex vivo uptake of fluorescent Aβ42 by peripheral blood monocytes from adjuvanted mice; assay type: in vivo, C57BL/6 mice; settings: i.m. injection; AS01B mouse full dose, CRX601 2 μg dose
Excerpt: To begin to examine the function of the increase of monocytes in the peripheral blood, we examined the capacity of those monocytes to uptake Aβ42 in a test tube. In order to measure that phagocytic activity, we have used fluorescent HiLyteFluo Aβ42 (Anaspec Inc).
We examined the capacity of monocytes to uptake Aβ42 in a test tube. In order to measure that phagocytic activity we have used fluorescent HiLyteFluo Aβ42 (Anaspec Inc).
Preparation of cells: Peripheral blood was drawn from C57BL/6 mice via cardiac puncture with lithium-heparin as anticoagulant, 24-Hour after injection of the adjuvants used herein. Red blood cell lysis was performed twice on pooled blood with Ammonium Chloride-based Buffer (Sigma, Steinheim, Germany) and cells were counted with the EasyCount™ System (Immunicon). […]
Samples were acquired on a flow cytometer (BD FACSCanto II) and data analyzed with the FACSDiva software (BD Biosciences).
Monocytes were identified by their Side/Forward scatter properties, excluding debris and gated as CD3-/CD45R/B220-/Ly-6G-/NK1.1-(Lineage-)/CD11b+ cells. Aβ uptake was assessed by reporting the percentage and Mean Fluorescence Intensity (GeoMean) of positive HiLyte fluor488 Aβ1-42 cells among gated monocytes.

3-O-desacyl-4′-monophosphoryl lipid A [3D MPL]
Amyloid beta plaque number (APPSwe/PS1 mice): statistically significant reduction
Aβ total plaque loading by immunofluorescence vs PBS control group (APPSwe/PS1 mice): significant difference
CCL2 level compared to the LPS group ([1]; 2 h after i.p. injection): higher
CXCL-1 level compared to the LPS group ([1]; 2 h after i.p. injection): similar
levels of TNF-α and IL-6 in sera ([1]; 2 h post i.p. injection): modest increase
levels of TNF-α and IL-6 in sera ([1]; 6 h post i.p. injection): essentially abolished
serum cytokine and chemokine levels compared with LPS-treated animals ([1]; single i.p. injection, 2 and 6 h): substantially lower

CCCCCCCCCCC[C@H](CC(=O)N[C@H]1[C@H](OC[C@H](NC(=O)C[C@@H](CCCCCCCCCCC)OCCCCCCCCCC)C(=O)O)O[C@H](CO)[C@@H](OP(=O)(O)O)[C@@H]1OC(=O)C[C@@H](CCCCCCCCCCC)OCCCCCCCCCC)OCCCCCCCCCC [CRX601]
Aβ42 uptake by monocytes compared to PBS group [2]: higher amount
